Test results from patent US8383581B2, “Short-chain peptides as parathyroid hormone (PTH) receptor agonist” (Cadila Healthcare Limited, priority 2009, dated 2013).
Where a SMILES comes first, the peptide text is derived from it. [ ]: non-standard residue; d: D form. ξ: configuration not given here. αMePhe(2,6-F2) = C[C@](N)(Cc1c(F)cccc1F)C(=O)O; ξαMePhe(2,6-F2) = CC(N)(Cc1c(F)cccc1F)C(=O)O; αMePhe(2-F) = C[C@](N)(Cc1ccccc1F)C(=O)O; ξαMePhe(2-F) = CC(N)(Cc1ccccc1F)C(=O)O; hArg = N=C(N)NCCCC[C@H](N)C(=O)O; Cit = NC(=O)NCCC[C@H](N)C(=O)O; Nle = CCCC[C@H](N)C(=O)O; Ac5c = NC1(C(=O)O)CCCC1; Aib = CC(C)(N)C(=O)O

How the values were obtained:
Assay type in all cases: in vitro ADME
[1] = Stability of peptides in human liver microsomes; details: human, microsomes; for % degradation of peptides in 24 h when incubated with liver microsomes: 2 μM, pH 7.8
In short: (§1)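 Peptides at 2 μM final incubated 0–24 h at 37 °C (50 mM triethanolamine-HCl, pH 7.8) in each matrix, matrix level set to degrade ~50% PTH(1-34) in 1 h; TFA-quenched, C18 HPLC at 206 nm with ESI-MS peak identification; percent degradation from peak areas at each time point.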

[2] = Stability of peptides in simulated intestinal fluid (pH 7.5); details: pH 7.5; for % degradation of peptides in 24 h when incubated with simulated intestinal fluid: 2 μM
In short: as §1

[3] = Stability of peptides in simulated gastric fluid (pH 1.5; HCl, NaCl and Pepsin); details: pH 1.5; for % degradation of peptides in 24 h when incubated with simulated gastric fluid: 2 μM
[4] = Stability of peptides in human plasma; details: human, plasma; for metabolised at 24 h, 2 μM: pH 7.8
In short: as §1

Row | SMILES | half-life [1] | % degradation of peptides in 24 h when incubated with liver microsomes [1] | half-life (t1/2) in simulated intestinal fluid ([2]; simulated gi fluid) | % degradation of peptides in 24 h when incubated with simulated intestinal fluid [2] | % degradation of peptides in 24 h when incubated with simulated gastric fluid [3] | half-life (t1/2) in simulated gastric fluid ([3]; simulated gi fluid) | half-life [4] | metabolised at 24 h, 2 μM [4] | half-life (t1/2) in liver microsomes [1] | half-life ([2]; simulated gi fluid) | half-life ([3]; simulated gi fluid)
1 | CCCC[C@H](NC(=O)[C@](C)(Cc1ccccc1F)NC(=O)[C@H](CCC(N)=O)NC(=O)[C@@H](NC(=O)[C@H](CCC(=O)O)NC(=O)C(C)(C)NC(=O)[C@@H](NC(=O)C(C)(C)N)C(C)C)[C@@H](C)CC)C(=O)N[C@@H](Cc1c[nH]cn1)C(=O)N[C@@H](CCC(N)=O)C(=O)N[C@@H](CCCCNC(=N)N)C(=O)NC(C)(C)C(=O)N[C@@H](CCCNC(N)=O)C(=O)N[C@@](C)(Cc1c(F)cccc1F)C(N)=O [Seq. ID. 142] (H-[Aib]V[Aib]EIQ[αMePhe(2-F)][Nle]HQ[hArg][Aib][Cit][αMePhe(2,6-F2)]-NH2) | 1 h | 82% | (6) h | 50% | 13% | (8) h | 8 h | 80% |  |  | 
2 | CCCC[C@H](NC(=O)C(C)(Cc1ccccc1F)NC(=O)[C@H](CCC(N)=O)NC(=O)[C@@H](NC(=O)[C@H](CCC(=O)O)NC(=O)C(C)(C)NC(=O)[C@@H](NC(=O)C(C)(C)N)C(C)C)[C@@H](C)CC)C(=O)N[C@@H](Cc1c[nH]cn1)C(=O)N[C@@H](CCC(N)=O)C(=O)N[C@@H](CCCCNC(=N)N)C(=O)N[C@@H](C)C(=O)NC(C)(C)C(=O)NC(C)(Cc1ccccc1F)C(N)=O (some centres unmarked) [Seq. ID. 161] (H-[Aib]V[Aib]EIQ[ξαMePhe(2-F)][Nle]HQ[hArg]A[Aib][ξαMePhe(2-F)]-NH2) | 1 h | 80% | (6) h | 43% | 14% | (8) h | 8 h | 78% |  |  | 
3 | CCCC[C@H](NC(=O)C(C)(Cc1ccccc1F)NC(=O)[C@H](CCC(N)=O)NC(=O)[C@@H](NC(=O)[C@H](CCC(=O)O)NC(=O)C(C)(C)NC(=O)[C@@H](NC(=O)C(C)(C)N)C(C)C)[C@@H](C)CC)C(=O)N[C@@H](Cc1c[nH]cn1)C(=O)N[C@@H](CCC(N)=O)C(=O)N[C@@H](CCCCNC(=N)N)C(=O)NC(C)(C)C(=O)NC(C)(C)C(=O)NC(C)(Cc1c(F)cccc1F)C(N)=O (some centres unmarked) [Seq. ID. 182] (H-[Aib]V[Aib]EIQ[ξαMePhe(2-F)][Nle]HQ[hArg][Aib][Aib][ξαMePhe(2,6-F2)]-NH2) |  | 26% |  | 00% | 00% |  | > 24 h | 0% | (5) h | > 24 h | > 24 h
4 | CCCC[C@H](NC(=O)C(C)(Cc1c(F)cccc1F)NC(=O)[C@H](CCC(N)=O)NC(=O)[C@@H](NC(=O)[C@H](CCC(=O)O)NC(=O)C(C)(C)NC(=O)[C@@H](NC(=O)C1(N)CCCC1)C(C)C)[C@@H](C)CC)C(=O)N[C@@H](Cc1c[nH]cn1)C(=O)N[C@@H](CCC(N)=O)C(=O)N[C@@H](CCCCNC(=N)N)C(=O)NC(C)(C)C(=O)NC(C)(Cc1c(F)cccc1F)C(=O)NC(C)(Cc1ccccc1F)C(N)=O (some centres unmarked) [Seq. ID. 220] (H-[Ac5c]V[Aib]EIQ[ξαMePhe(2,6-F2)][Nle]HQ[hArg][Aib][ξαMePhe(2,6-F2)][ξαMePhe(2-F)]-NH2) | 1 h | 83% | (6) h | 46% | 12% | (8) h | 8 h | 75% |  |  | 
